We go through three compounds from PMC12656565, “In Vitro and Ultrastructural Evaluation of the Cytotoxic and Antileishmanial Activities of Thiosemicarbazone Compounds Against Promastigotes and Axenic Amastigotes of Leishmania infantum” (Tropical Medicine and Infectious Disease, 2025).

Structures are written as SMILES.

Data set [1] relates to L. infantum promastigote forms. The data set can be described thus: Ultrastructural analysis (SEM/TEM) of promastigote forms. The conditions noted are these: promastigotes, 1× and 2× IC50 (Amphotericin B 1× IC50), 72 h. The format is cell-based, Leishmania infantum. How it is done: Ultrastructural analysis of promastigote and axenic amastigote forms of L. infantum was performed as described by Silva et al., with adaptations. Promastigote and amastigote forms were cultured in modified Schneider’s medium supplemented with 10% fetal bovine serum (FBS), in a BOD incubator at 26 °C and 32 °C, respectively, until reaching the stationary growth phase (72 h). After adjusting cell concentration to 1 × 10^7 cells/mL, samples were incubated with compounds LT-73, LT-75, and amphotericin B at concentrations corresponding to the IC50 and 2× IC50 previously determined, as well as a DMSO control (1% diluted), for 72 h. During incubation, daily microscopic monitoring of cell morphology was performed.
After this period, cells were washed with PBS (phosphate-buffered saline) and fixed in a solution containing 2.5% glutaraldehyde and 4% formaldehyde in 0.1 M phosphate buffer (pH 7.4) for 24 h at 4 °C. For transmission electron microscopy (TEM), cells were post-fixed in 1% osmium tetroxide (OsO4) for 2 h in 0.1 M phosphate buffer (pH 7.2), dehydrated in increasing acetone series (30%, 50%, 70%, 90%, and 3× 100%), embedded in EPON resin, and subjected to ultrathin sectioning using an ultramicrotome. Sections were contrasted with 2% uranyl acetate for 30 min and 2.5% lead citrate for 10 min, then analyzed using a Tecnai G2 Spirit TEM (FEI).
For scanning electron microscopy (SEM), after primary fixation, cells were adhered to coverslips pre-treated with poly-L-lysine for 30 min. Then, cells were washed three times with 0.1 M phosphate buffer (pH 7.2), post-fixed in 1% OsO4 for 2 h, dehydrated in increasing ethanol series (30%, 50%, 70%, 90%, and 3× 100%), subjected to critical point drying using an HCP-2 device (Hitachi (Tokyo, Japan)), and gold-coated (20 nm) using a JFC-1100 device ((JEOL Ltd., Tokyo, Japan)). […]
(§1) All images were acquired under standardized laboratory protocols. A minimum of 50 parasites per condition were analyzed by two blinded investigators and no visible precipitation or crystallization occurred during fixation.

In a further data set the test system is J774.A1 macrophages. Briefly: Cytokine dosage (CBA) in supernatants of uninfected macrophages. Format: cell-based, Mouse. Particulars: 1× and 2× CC50, 72 h. How it is done:
J774.A1 macrophage lineage cells were cultured in 96-well polystyrene plates containing DMEM medium supplemented with 10% FBS. Cells were incubated with the following concentrations: 1× CC50 and 2× CC50 of compounds LT-73 and LT-75 and amphotericin B, as well as 1% DMSO diluent solution as control, for 72 h. The cells used in these assays were not infected with Leishmania infantum, allowing the evaluation of cytokine modulation and cytotoxicity in uninfected macrophages. After cultivation, 100 µL of culture supernatants were collected and immediately stored at −20 °C for later use in CBA assays (Cytometric Bead Array-BD Biosciences, BD Biosciences, San Jose, CA, USA). This assay utilized a mixture of […] polystyrene beads with different fluorescence intensities, coated with specific antibodies for quantification of cytokines IFN-γ, TNF, IL-10, IL-6, IL-4, IL-2, and IL-17a present in sample supernatants. Cytokine levels were quantified using the BD Cytometric Bead Array (CBA) Mouse Th1/Th2/Th17 kit (Cat. No. 560485, BD Biosciences, San Jose, CA, USA) and analyzed on a BD FACSCalibur™ Flow Cytometer with BD CellQuest PRO Software (BD Biosciences; version 5.1 by the facility). Results are expressed in pg/mL based on standard curves provided by the manufacturer.

Data set [2] relates to L. infantum axenic amastigotes. The data set can be described thus: Ultrastructural analysis (SEM/TEM) of axenic amastigote forms. Particulars: 1× and 2× IC50 (Amphotericin B 1× IC50), 72 h. Format: cell-based, Leishmania infantum. Here is the method: Differentiation of L. infantum promastigote forms into axenic amastigote forms was carried out according to the protocol by Oliveira et al., with adaptations. Stationary-phase promastigotes (72 h) were cultured in modified Schneider’s Drosophila medium supplemented with 10% fetal bovine serum (FBS) at 26 °C. Cells were collected by centrifugation (3000× g for 10 min at 4 °C), washed three times with PBS (150 mM NaCl, 20 mM phosphate buffer, pH 7.2), and adjusted to 1 × 10^6 cells/mL. Differentiation was induced in acidified Schneider’s medium (pH 5.5), supplemented with 2.5% FBS, incubated at 32 °C for seven days.
Axenic amastigotes were obtained from stationary-phase promastigotes of L. infantum following standard differentiation protocols. The cultures were maintained under controlled conditions and monitored daily by optical microscopy. Morphological observations confirmed the transition from elongated promastigotes to rounded amastigote-like forms with internalized or absent flagella. […] Cultures were regularly examined for microbial contamination, and no evidence of bacterial or fungal contamination was detected during the differentiation or experimental periods. Axenic amastigotes were exposed to compounds LT-73 and LT-75 at concentrations corresponding to the IC50 and 2× IC50, previously determined for promastigotes based on leishmanicidal activity, for analysis by scanning (SEM) and transmission electron microscopy (TEM). […]
After this period, cells were washed with PBS (phosphate-buffered saline) and fixed in a solution containing 2.5% glutaraldehyde and 4% formaldehyde in 0.1 M phosphate buffer (pH 7.4) for 24 h at 4 °C. […] Sections were contrasted with 2% uranyl acetate for 30 min and 2.5% lead citrate for 10 min, then analyzed using a Tecnai G2 Spirit TEM (FEI). […]
as §1

In the next data set the test system is peritoneal macrophages. The arrangement: method as in ref [23] Queiroz et al. Particulars: ref [23] Queiroz et al.; cited from earlier work.
Data set [3] concerns J774 macrophages and Vero cells. The arrangement: method as in ref [21] Aliança et al. The conditions noted are these: ref [21] Aliança et al.; cited from earlier work.

As to `N#Cc1ccc2[nH]cc(/C=N/NC(=S)Nc3ccc(Cl)cc3)c2c1` [LT-75], the TEM ultrastructural alterations entry was “extensive damage to the plasma membrane and cytoskeleton” in data set [1]; “severe damage to the plasma membrane and cytoskeleton” in data set [2]. Besides, the IFN-γ production entry with J774.A1 macrophages is given as “induced the production of the cytokine IFN-γ”. Besides, the IL-6 secretion result in the data set on J774.A1 macrophages is “discrete elevation detected at 1× LT-75”.

For `S=C(N/N=C/c1c[nH]c2ncccc12)Nc1ccccc1` [LT-73], the TEM ultrastructural alterations entry in data set [1] is “disorganization of the plasma membrane, mitochondrial swelling, chromatin condensation, and the presence of numerous vacuoles”. In addition, in the data set with J774.A1 macrophages, the IFN-γ production result is reported as “no cytokine production was observed” and the IL-6 secretion result is recorded as “IL-6 production was observed only at the CC50 concentration”. Also, in data set [2], the TEM ultrastructural alterations result is “significant alterations in the plasma membrane and flagellar pocket, chromatin condensation, mitochondrial swelling, and an increased number of intracellular vacuoles”.

Consider `C[C@@H]1[C@H](O)[C@@H](C)/C=C/C=C/C=C/C=C/C=C/C=C/C=C/[C@H](O[C@@H]2O[C@H](C)[C@@H](O)[C@H](N)[C@@H]2O)C[C@@H]2O[C@](O)(C[C@@H](O)C[C@@H](O)[C@H](O)CC[C@@H](O)C[C@@H](O)CC(=O)O[C@H]1C)C[C@H](O)[C@H]2C(=O)O` [Amphotericin B, reference compound], for which the values for the cytotoxicity (in the data set with peritoneal macrophages; in data set [3]) were 74.86 µM and 74.7 µM, respectively. In addition, the TEM ultrastructural alterations result in data set [1] was “membrane rupture, chromatin condensation, and mitochondrial swelling”; in data set [2], “plasma membrane rupture, alterations in the kinetoplast, and mitochondrial swelling”.
